# Measurements taken from patent publication US20230021448A1, “COMPOUNDS AND COMPOSITIONS FOR TREATING CONDITIONS ASSOCIATED WITH STING ACTIVITY” (IFM Due, Inc., priority 2019, published 2023).
# Biological target: T1, STING (Homo sapiens, UniProt Q86WV6, G230A/H232R/R293Q/R71H)
# T1 construct: host or cells: THP1-Dual KO-IFNAR2 cells
# Assay: STING reporter assay: luciferase reporter activity in THP1-Dual KO-IFNAR2 cells stimulated with 2'3'cGAMP
# Type: cell-based
# Details: 2′3′cGAMP 15 μM final, 24h, read-out: hSTING: EC50
# Procedure, shortened: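 THP1-Dual KO-IFNAR2 cells (2×10E6 cells/mL) incubated with compounds at 0.0017-100 μM final plus Lipofectamine-transfected 2′3′cGAMP (15 μM final), 24 h at 37 °C, 5% CO2. Luciferase in supernatant read by QUANTI-Luc luminescence; EC50 derived.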
# T1 sequence (Q86WV6 whole entry R71H/G230A/H232R/R293Q): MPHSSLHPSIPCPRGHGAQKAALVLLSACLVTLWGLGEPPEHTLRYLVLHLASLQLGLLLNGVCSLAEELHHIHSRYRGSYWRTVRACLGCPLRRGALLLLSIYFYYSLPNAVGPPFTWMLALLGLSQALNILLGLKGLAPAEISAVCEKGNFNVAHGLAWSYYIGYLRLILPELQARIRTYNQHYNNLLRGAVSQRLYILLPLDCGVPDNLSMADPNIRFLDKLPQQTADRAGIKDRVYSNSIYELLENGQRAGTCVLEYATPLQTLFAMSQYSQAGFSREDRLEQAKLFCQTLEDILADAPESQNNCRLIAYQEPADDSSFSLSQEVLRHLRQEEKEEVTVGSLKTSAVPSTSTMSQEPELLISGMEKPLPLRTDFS
row,SMILES,EC50
1,"O=C(NCc1cccc(OC(F)(F)F)c1)C(=O)Nc1c[nH]c2cc(F)c(F)cc12 [Compound 166, N1-(5,6-difluoro-1H-indol-3-yl)-N2-(3-(trifluoromethoxy)benzyl)oxalamide]",200 to 1000 nM
2,"Cc1c(NC(=O)C(=O)Nc2c[nH]c3cc(F)c(F)cc23)cccc1C(F)(F)F [Compound 167, N1-(5,6-difluoro-1H-indol-3-yl)-N2-(2-methyl-3-(trifluoromethyl)phenyl)oxalamide]",200 to 1000 nM
3,Cc1ccc(CNC(=O)C(=O)Nc2c[nH]c3ccc(-c4cnn(C(C)C)c4)cc23)cc1C(F)(F)F [Compound 168],200 to 1000 nM
4,O=C(Nc1c[nH]c2cc(F)c(F)cc12)C(=O)NC1CCN(c2ccccc2)C1 (stereo not drawn) [Compound 169],200 to 1000 nM
5,Cn1cc(NC(=O)C(=O)NCc2ccc(C(F)(F)F)c(Cl)c2)c2cc(F)c(F)cc21 [Compound 170],5000 to 100000 nM
6,O=C(NCc1ccc(C(F)(F)F)c(Cl)c1)C(=O)Nc1c[nH]c2ccccc12 [Compound 171],200 to 1000 nM
7,O=C(Nc1ccc(C(F)(F)F)cc1)C(=O)Nc1c[nH]c2cc(F)ccc12 [Compound 172],200 to 1000 nM
8,O=C(NCc1cnc(C(F)(F)F)c(Cl)c1)C(=O)Nc1c[nH]c2cc(F)c(F)cc12 [Compound 173],200 to 1000 nM
9,O=C(Nc1c[nH]c2cc(F)c(F)cc12)C(=O)N[C@H]1CC[C@H](OCC(F)F)CC1 [Compound 174],200 to 1000 nM
10,O=C(Nc1ccc(C2CCC(F)(F)CC2)nc1)C(=O)Nc1c[nH]c2cc(F)c(F)cc12 [Compound 175],200 to 1000 nM
11,O=C(NC[C@@H]1CC12CCCCC2)C(=O)Nc1c[nH]c2cc(F)c(F)cc12 [Compound 176],200 to 1000 nM
12,O=C(NC[C@H]1CC12CCCCC2)C(=O)Nc1c[nH]c2cc(F)c(F)cc12 [Compound 177],40 to 200 nM
13,O=C(Nc1c[nH]c2cc(F)c(F)cc12)C(=O)NC1CCC(OCC(F)F)CC1 (stereo not drawn) [Compound 178],200 to 1000 nM
14,O=C(NCCC1CCC(F)(F)CC1)C(=O)Nc1c[nH]c2ccccc12 [Compound 179],1000 to 5000 nM
15,O=C(Nc1ccc(C(F)(F)F)cc1)C(=O)Nc1c[nH]c2ccc(F)c(F)c12 [Compound 180],200 to 1000 nM
16,O=C(Nc1ccc(C(F)(F)F)c(Cl)c1)C(=O)Nc1c[nH]c2cc(F)c(F)cc12 [Compound 181],200 to 1000 nM
17,C#Cc1ccc(NC(=O)C(=O)Nc2c[nH]c3cc(F)c(F)cc23)cc1 [Compound 182],200 to 1000 nM
18,Cc1cc(NC(=O)C(=O)Nc2c[nH]c3ccccc23)cc(C(F)(F)F)c1 [Compound 183],200 to 1000 nM
19,O=C(Nc1ccc(C(F)(F)F)cc1)C(=O)Nc1c[nH]c2ccc(F)cc12 [Compound 184],200 to 1000 nM
20,CC[C@H]1CC[C@@H](NC(=O)C(=O)Nc2c[nH]c3cc(F)c(F)cc23)CC1 [Compound 185],200 to 1000 nM
21,CC[C@H]1CC[C@H](NC(=O)C(=O)Nc2c[nH]c3cc(F)c(F)cc23)CC1 [Compound 186],40 to 200 nM

row,SMILES,EC50
1,O=C(Nc1c[nH]c2cc(F)c(F)cc12)C(=O)N[C@H]1CC[C@@H](OCC(F)F)CC1 [Compound 187],1000 to 5000 nM
2,O=C(NCCC12C[C@H]3C[C@@H](C1)C[C@@H](C2)C3)C(=O)Nc1c[nH]c2cc(F)c(F)cc12 [Compound 188],200 to 1000 nM
3,O=C(NCC1CC12CCCCC2)C(=O)Nc1c[nH]c2cc(F)c(F)cc12 (stereo not drawn) [Compound 189],200 to 1000 nM
4,O=C(NCCC1CC2CCC1C2)C(=O)Nc1c[nH]c2cc(F)c(F)cc12 (stereo not drawn) [Compound 190],200 to 1000 nM
5,CC(C)(C)C1CCC(NC(=O)C(=O)Nc2c[nH]c3cc(F)c(F)cc23)CC1 (stereo not drawn) [Compound 191],200 to 1000 nM
6,O=C(Nc1c[nH]c2cc(F)c(F)cc12)C(=O)N1CCCC(Oc2ccc(C(F)(F)F)cc2)C1 (stereo not drawn) [Compound 195],200 to 1000 nM
7,Cc1ccc(O[C@H]2C[C@H](NC(=O)C(=O)Nc3c[nH]c4cc(F)c(F)cc34)C2)cn1 [Compound 196],200 to 1000 nM
8,O=C(Nc1c[nH]c2cc(F)c(F)cc12)C(=O)N[C@H]1C[C@H](Nc2ccc(C(F)(F)F)cn2)C1 [Compound 197],200 to 1000 nM
9,O=C(Nc1c[nH]c2cc(F)c(F)cc12)C(=O)N[C@H]1C[C@@H](Oc2ccc(C(F)(F)F)nc2)C1 [Compound 198],200 to 1000 nM
10,Cc1ccc(O[C@H]2C[C@H](NC(=O)C(=O)Nc3c[nH]c4cc(F)c(F)cc34)C2)nc1 [Compound 199],40 to 200 nM
11,O=C(NCCCOc1ccc(C(F)(F)F)nc1)C(=O)Nc1c[nH]c2cc(F)c(F)cc12 [Compound 200],200 to 1000 nM
12,O=C(Nc1c[nH]c2cc(F)c(F)cc12)C(=O)N[C@H]1C[C@H](Oc2cncc(C(F)(F)F)c2)C1 [Compound 201],200 to 1000 nM
13,"O=C(Nc1c[nH]c2cc(F)c(F)cc12)C(=O)N[C@H]1CC[C@H](Nc2ccccn2)CC1 [Compound 202, N-(5,6-difluoro-1H-indol-3-yl)-N′-[trans-4-(pyridin-2-ylamino)cyclohexyl]ethanediamide]",5000 to 100000 nM
14,O=C(NCC(=O)N1CCc2cccnc21)C(=O)Nc1c[nH]c2cc(F)c(F)cc12 [Compound 203],200 to 1000 nM
15,O=C(NCC(=O)N1CCc2ccc(C(F)(F)F)cc21)C(=O)Nc1c[nH]c2cc(F)c(F)cc12 [Compound 204],40 to 200 nM
16,O=C(Nc1c[nH]c2cc(F)c(F)cc12)C(=O)NC1CC2CCC(C1)C2Oc1ccc(C(F)(F)F)cc1 (stereo not drawn) [Compound 205],1000 to 5000 nM
17,CC(C)(CO)CCCN1CCN(C(=O)C(=O)Nc2c[nH]c3cc(F)c(F)cc23)CC1 [Compound 206],5000 to 100000 nM
18,O=C(Nc1c[nH]c2ccc(Cl)cc12)C(=O)N[C@H]1C[C@H](Nc2ccccn2)C1 [Compound 208],1000 to 5000 nM
19,"O=C(Nc1c[nH]c2cc(F)c(Cl)cc12)C(=O)N[C@H]1CC[C@H](Oc2ccc(C(F)(F)F)cn2)CC1 [Compound 209, N-(5-chloro-6-fluoro-1H-indol-3-yl)-N′-(trans-4-((5-(trifluoromethyl)pyridin-2-yl)oxy)cyclohexyl)oxalamide]",200 to 1000 nM
20,O=C(Nc1c[nH]c2cc(F)c(F)cc12)C(=O)N[C@H]1C[C@H](Oc2ccc(C(F)(F)F)cn2)C1 [Compound 210],200 to 1000 nM
21,O=C(Nc1c[nH]c2cc(F)c(F)cc12)C(=O)N[C@H]1CC[C@H](NCC(F)(F)F)CC1 [Compound 211],1000 to 5000 nM

row,SMILES,EC50
1,O=C(Nc1c[nH]c2ccc(Cl)cc12)C(=O)N[C@H]1C[C@H](Oc2ccccn2)C1 [Compound 212],200 to 1000 nM
2,"O=C(Nc1c[nH]c2ccc(Cl)cc12)C(=O)N[C@H]1CC[C@H](Oc2ccc(C(F)(F)F)cc2)CC1 [Compound 213, N-(5-chloro-1H-indol-3-yl)-N′-(trans-4-(4-(trifluoromethyl)phenoxy)cyclohexyl)oxalamide]",40 to 200 nM
3,N#Cc1cc(F)c2[nH]cc(NC(=O)C(=O)NCc3ccc(C(F)(F)F)c(Cl)c3)c2c1 [Compound 215],200 to 1000 nM
4,O=C(Nc1c[nH]c2cc(F)c(F)cc12)C(=O)N1CCN(CCc2ccc(C(F)(F)F)cc2)CC1 [Compound 216],1000 to 5000 nM
5,O=C(Nc1c[nH]c2cc(F)c(F)cc12)C(=O)NC1CCC(Oc2ccc(C(F)(F)F)cc2)C1 (stereo not drawn) [Compound 217],200 to 1000 nM
6,O=C(Nc1c[nH]c2cc(F)c(F)cc12)C(=O)NC1CC(Oc2ccc(C(F)(F)F)cc2)C1 (stereo not drawn) [Compound 218],200 to 1000 nM
7,CN1CCOc2cc(NC(=O)C(=O)Nc3c[nH]c4cc(F)c(F)cc34)cnc21 [Compound 219],1000 to 5000 nM
8,O=C(Nc1c[nH]c2cc(F)c(F)cc12)C(=O)NC1CCC(Oc2ccc(C(F)(F)F)cn2)C1 (stereo not drawn) [Compound 221],200 to 1000 nM
9,O=C(Nc1c[nH]c2cc(F)c(F)cc12)C(=O)N[C@H]1CC[C@@H](Oc2ccc(C(F)(F)F)nc2)CC1 [Compound 222],200 to 1000 nM
10,"O=C(Nc1c[nH]c2cc(F)c(F)cc12)C(=O)N[C@H]1CC[C@H](Oc2ccc(C(F)(F)F)nc2)CC1 [Compound 223, N-(5,6-difluoro-1H-indol-3-yl)-N′-[trans-4-[[6-(trifluoromethyl)pyridin-3-yl]oxy]cyclohexyl]ethanediamide]",200 to 1000 nM
11,O=C(Nc1c[nH]c2cc(F)c(F)cc12)C(=O)NC1CCC(Oc2ccc(C(F)(F)F)nc2)CC1 (stereo not drawn) [Compound 224],40 to 200 nM
12,"O=C(Nc1c[nH]c2cc(F)ccc12)C(=O)NC1CCC(Oc2ccc(C(F)(F)F)cn2)CC1 (stereo not drawn) [Compound 225, N-(6-fluoro-1H-indol-3-yl)-N′-(4-((5-(trifluoromethyl)pyridin-2-yl)oxy)cyclohexyl)oxalamide]",40 to 200 nM
13,O=C(Nc1c[nH]c2cc(F)c(F)cc12)C(=O)NC1CC(Oc2ccc(C(F)(F)F)cn2)C1 (stereo not drawn) [Compound 226],40 to 200 nM
14,O=C(Nc1c[nH]c2cc(F)c(F)cc12)C(=O)N[C@H]1CC[C@@H](Oc2ccc(C(F)(F)F)cn2)CC1 [Compound 229],1000 to 5000 nM
15,"O=C(Nc1c[nH]c2cc(F)c(F)cc12)C(=O)N[C@H]1CC[C@H](Oc2ccc(C(F)(F)F)cn2)CC1 [Compound 230, N-(5,6-difluoro-1H-indol-3-yl)-N′-[trans-4-[[5-(trifluoromethyl)pyridin-2-yl]oxy]cyclohexyl]ethanediamide]",40 to 200 nM
16,N#Cc1cc(NC(=O)C(=O)Nc2c[nH]c3cc(F)c(F)cc23)cnc1N1CCCC1 [Compound 231],200 to 1000 nM
17,Cc1cc(NC(=O)C(=O)Nc2c[nH]c3cc(F)c(-c4cnn(C)c4)cc23)cnc1N1CCC(F)(F)CC1 [Compound 232],1000 to 5000 nM
18,O=C(Nc1c[nH]c2cc(F)c(F)cc12)C(=O)N[C@H]1CCCC(Oc2ccc(C(F)(F)F)cc2)C1 (stereo partly drawn) [Compound 233],200 to 1000 nM
19,O=C(Nc1c[nH]c2cc(F)c(F)cc12)C(=O)N[C@@H]1CCCC(Oc2ccc(C(F)(F)F)cc2)C1 (stereo partly drawn) [Compound 234],200 to 1000 nM
20,"O=C(Nc1cnc(-n2nccn2)c(C(F)(F)F)c1)C(=O)Nc1c[nH]c2cc(F)c(F)cc12 [Compound 238, N1-(6-(2H-1,2,3-triazol-2-yl)-5-(trifluoromethyl)pyridin-3-yl)-N2-(5,6-difluoro-1H-indol-3-yl)oxalamide]",1000 to 5000 nM
21,O=C(Nc1c[nH]c2cc(F)c(F)cc12)C(=O)N1CCN(c2ccc(CC(F)(F)F)cn2)CC1 [Compound 241],200 to 1000 nM
